Measured values reported in the METLIN SMRT retention time set (Domingo-Almenara et al. 2019).

Assay: gradient 5% acetonitrile 3 min, to 50% in 2 min, to 85% in 15 min, held 3 min, 100 µL/min
Conditions: column: Zorbax Extend-C18 2.1 x 50 mm; eluents: water / acetonitrile, 0.1% formic acid
Outline: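 A Zorbax Extend-C18 column (2.1 × 50 mm, 1.8 μm) run at 100 μL/min with water and acetonitrile, both containing 0.1% formic acid, separated mixtures of ~100 pure standards. The HPLC was coupled to a quadrupole time-of-flight mass spectrometer operated in positive and negative ionization mode, with dead and dwell volumes of 40 μL and 900 μL. Each retention time was taken from a computationally picked adduct peak that was then manually inspected.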

## Cc1ccc(-c2nc(Cn3cccc3C(=O)N3CCCC3)no2)cc1
  RP-LC retention time: 972 s

## Cc1cc(S(=O)(=O)N2CCC(N(C(=O)C3CC3)C3CCOCC3)CC2)ccc1Cl
  RP-LC retention time: 977 s

## COc1ccc(S(=O)(=O)NCc2cccnc2-c2ccc(C)cc2)cc1
  RP-LC retention time: 679 s

## CC1(C(=O)NCc2ccccc2)CCCN(C(=O)NCc2ccccc2)C1 (stereo not given)
  RP-LC retention time: 810 s

## COc1cc(-c2noc(Cn3ncn4nc(-c5ccc(F)cc5)cc4c3=O)n2)cc(OC)c1OC
  RP-LC retention time: 1020 s

## O=C(Cc1cccn1-c1ccc(Cl)cc1)NCCCN1CCOCC1
  RP-LC retention time: 625 s

## Cc1nc(C2(C)CCN(S(=O)(=O)c3ccccc3C(F)(F)F)CC2)no1
  RP-LC retention time: 963 s

## CCCN(CCC)C(=O)C1CCCN(c2ccc(-c3ccc(C)cc3)nn2)C1 (stereo not given)
  RP-LC retention time: 826 s

## O=C(NCc1cccs1)c1cnn2c(-c3ccc(Cl)cc3)ccnc12
  RP-LC retention time: 983 s

## O=C(Nc1ccc(Cl)cc1)N1CCC(n2c(C(F)(F)F)nc3cccnc32)CC1
  RP-LC retention time: 942 s

## O=C(NCCC1=CCCCC1)C1CCN(Cc2cc3ccccc3n2Cc2ccccc2Cl)CC1
  RP-LC retention time: 924 s

## O=C(Nc1ccc(F)cc1)N1CCC(n2cnc3c(Cl)cccc3c2=O)CC1
  RP-LC retention time: 805 s

## Cc1ccc(-c2cc3c(N4CCC(C(=O)NC(C)C)CC4)nccn3n2)c(C)c1
  RP-LC retention time: 769 s

## Cc1ccc(CNC(=O)C2CCCN(c3ncnc4c3oc3ccccc34)C2)cc1 (stereo not given)
  RP-LC retention time: 807 s

## CNC(=O)C1CCCN(c2nc3ncn(CC(=O)Nc4ccc(C(=O)OC)cc4)c(=O)c3s2)C1 (stereo not given)
  RP-LC retention time: 649 s

## Cc1nc2cc(N3CC(C(=O)NCc4ccc(F)c(Cl)c4)CC3=O)ccc2o1 (stereo not given)
  RP-LC retention time: 750 s

## COc1nn(C)cc1C(=O)Nc1nnc(C)s1
  RP-LC retention time: 583 s

## CSc1cnc(Nc2nc(-c3ccc(Br)cc3)cs2)nc1
  RP-LC retention time: 1190 s

## COc1ccccc1CC(=O)Nc1ccc(-c2nc(Cn3cc(C)cn3)c(C)o2)cc1
  RP-LC retention time: 909 s

## COc1ccc2c(C)c(CC(=O)N3CCC(C(N)=O)CC3)c(=O)oc2c1C
  RP-LC retention time: 661 s

## Cn1nnnc1C1CCCN(C(=O)C2CCC2)C1 (stereo not given)
  RP-LC retention time: 636 s

## O=C(Cn1ccnc1-c1ccnc(N2CCSCC2)c1)N1CCN(c2ccccc2)CC1
  RP-LC retention time: 697 s

## CC(C)NC(=O)c1ccc(OCC2CCCN(C(=O)c3cccc(Cl)c3)C2)cc1 (stereo not given)
  RP-LC retention time: 899 s

## Cc1nn(C)c(C)c1-c1cc(C(=O)O)[nH]n1
  RP-LC retention time: 574 s

## COc1ccc(-c2ncc(C(=O)O)c(=O)[nH]2)cc1OC
  RP-LC retention time: 591 s

## O=C(CSc1nnc(NC(=O)c2ccc(Br)o2)s1)NCC1CCCO1 (stereo not given)
  RP-LC retention time: 648 s

## CC(C)c1csc(-c2csc(S(=O)(=O)NC3CCCCC3)c2)n1
  RP-LC retention time: 1180 s

## CCOCC(=O)Nc1c(C)nc2ccc(Cl)cn2c1=O
  RP-LC retention time: 583 s

## O=C(N[C@@H]1CN(C(=O)C2CC2)CC[C@@H]1CO)C1CC1
  RP-LC retention time: 576 s

## CCc1ccc(OCc2nc(CCN(C)C(=O)Nc3ccc(OC)c(OC)c3)no2)cc1
  RP-LC retention time: 856 s

## Cc1ccc(S(=O)(=O)N2CCC(CC(=O)NC(C)Cc3ccco3)CC2)cc1 (stereo not given)
  RP-LC retention time: 907 s

## Cc1ccc2nc3c(c(C(=O)NC(C)C)c2c1)CCC3
  RP-LC retention time: 610 s

## CCOC(=O)c1[nH]c(C)c(C(=O)NCCN(C)C)c1C
  RP-LC retention time: 571 s

## Cc1nc(-c2cccnc2)nc2c1CCC(=O)N2CC1CCCCC1
  RP-LC retention time: 963 s

## O=c1ccn(-c2ccc(Cl)cc2)nc1-c1nc(-c2ccccc2OCc2ccccc2)no1
  RP-LC retention time: 845 s

## COc1ccccc1NC(=O)NCCc1nc2cccnc2n1C1CCCC1
  RP-LC retention time: 728 s

## Cc1ccc(-c2cn3c(CC(=O)NCCc4ccc(Cl)cc4)csc3n2)cc1C
  RP-LC retention time: 734 s

## Cc1ccc(Nc2c(-c3cccc(O)c3)nc3cnccn23)cc1Br
  RP-LC retention time: 834 s

## CCn1c(=O)c(N2CCN(C(=O)Nc3cc(C)cc(C)c3)CC2)nc2ccccc21
  RP-LC retention time: 927 s

## COc1ccc(-c2cc(N3CCC(NC(=O)c4ccc(OC)c(OC)c4)C3)n[nH]2)cc1 (stereo not given)
  RP-LC retention time: 655 s

## Cc1ccccc1Nc1c(-c2ccccc2)nc2ncccn12
  RP-LC retention time: 759 s

## O=C(NCC(c1ccsc1)N1CCCC1)Nc1ccc(Cl)cc1 (stereo not given)
  RP-LC retention time: 578 s

## Cc1ccc(NC(=O)N2CCC(n3cnc4cccnc43)CC2)c(Cl)c1
  RP-LC retention time: 676 s

## CCC(C)NC(=O)N1CCN(Cc2nc3cccnc3n2-c2cccc(C)c2)CC1 (stereo not given)
  RP-LC retention time: 646 s

## COc1ccc(-c2nc(C)cc(C)c2CNS(=O)(=O)c2ccccc2)cc1
  RP-LC retention time: 639 s

## CCOc1ccccc1N1CCN(C(=O)C2CCCN(c3nccc4sc(C)cc34)C2)CC1 (stereo not given)
  RP-LC retention time: 713 s

## O=C(COc1ccc(F)cc1)Nc1ccc(-c2nc(-c3ccc(Cl)cc3)no2)cc1
  RP-LC retention time: 1340 s

## COCCNC(=O)Cn1c(=O)n(-c2ccc(F)cc2)c2ncccc21
  RP-LC retention time: 652 s

## Cn1cc(S(=O)(=O)N2CCC(C(=O)NCc3ccccc3Cl)CC2)cc1C(=O)N1CCCC1
  RP-LC retention time: 752 s

## COc1ccc(S(=O)(=O)C(CNC(=O)c2ccc3c(c2)OCO3)c2cccs2)cc1 (stereo not given)
  RP-LC retention time: 787 s

## CC(C)NC(=O)c1ccc(-c2nnc3ccc(NC(=O)C4CCC4)cn23)cc1
  RP-LC retention time: 724 s

## O=C(Nc1ccc(Br)cc1)C1CCCN(c2ncc(-c3ccc(F)cc3)cn2)C1 (stereo not given)
  RP-LC retention time: 1240 s

## CCC(=O)Nc1nc(-c2ccc3c(c2)N(C)C(=O)C(C)O3)cs1 (stereo not given)
  RP-LC retention time: 801 s

## CC(C)(C)NC(=O)N1CC(c2nc(-c3cccnc3)no2)C2(CCOCC2)C1 (stereo not given)
  RP-LC retention time: 677 s

## O=C(Nc1ccc(F)cc1F)Nc1c(-c2ccc(F)cc2)nc2ccccn12
  RP-LC retention time: 677 s

## COc1ccc(NC(=O)Cn2nc3n(c2=O)CCCCC3)cc1
  RP-LC retention time: 709 s

## O=C(/C=C\c1ccccc1)Nc1ccc(-c2cn3cccnc3n2)cc1
  RP-LC retention time: 683 s

## COc1ccc(-c2ncc3c(n2)CCN(S(=O)(=O)c2ccc(Cl)s2)C3)cc1
  RP-LC retention time: 1140 s

## O=C(CCC1CCN(S(=O)(=O)c2ccccc2)CC1)NCc1ccco1
  RP-LC retention time: 776 s

## Cc1ccc(N2CC(c3noc(-c4ccc(C(C)(C)C)cc4)n3)CC2=O)cc1 (stereo not given)
  RP-LC retention time: 1310 s

## C(#Cc1ccccc1)CN1CCN(CC#Cc2ccccc2)CC1
  RP-LC retention time: 616 s

## Cc1ccc(C(=O)c2cnc3cc4c(cc3c2N2CCOCC2)OCO4)cc1C
  RP-LC retention time: 714 s

## Cn1ccc2cc(CCC(=O)NCc3ccncc3)ccc21
  RP-LC retention time: 596 s

## CC1CCCN(c2ccc(-c3noc(CN4CCN(C(C)C)CC4)n3)cn2)C1 (stereo not given)
  RP-LC retention time: 628 s

## Cc1ccc(-c2nc(-c3ccc4c(c3)oc(=O)n4C(C)C)no2)cc1C
  RP-LC retention time: 1130 s

## COc1ccc(NC(=O)Cn2ncc3c(N4CCN(c5ccccn5)CC4)ncnc32)cc1Cl
  RP-LC retention time: 642 s

## CCOC(=O)c1noc2ncnc(Nc3cccc(F)c3)c12
  RP-LC retention time: 616 s

## CCCS(=O)(=O)c1nc2ccc(NS(C)(=O)=O)cc2s1
  RP-LC retention time: 755 s

## CCCNC(=O)C1CCCN(c2nc3ncn(CC(=O)NCc4ccc(F)cc4)c(=O)c3s2)C1 (stereo not given)
  RP-LC retention time: 695 s

## Cc1ccc(-n2ncc3c(N4CCN(CCO)CC4)ncnc32)cc1Cl
  RP-LC retention time: 651 s

## CCOc1ccc(-c2[nH]ncc2CN2C[C@@H]3CCN(S(C)(=O)=O)C[C@]3(CF)C2)cc1
  RP-LC retention time: 661 s

## CCn1ncc(NC(=O)COc2ccc(C)cc2)c(N2CCOCC2)c1=O
  RP-LC retention time: 764 s

## CCN1CCN(CCNC(=O)c2sc3cc(Cl)ccc3c2OC)CC1
  RP-LC retention time: 636 s

## CSc1ccc(C2c3[nH]c4ccccc4c3CCN2C(=O)Cc2cccs2)cc1 (stereo not given)
  RP-LC retention time: 1200 s

## COc1ccc(-c2noc(C3CC(=O)N(c4ccc(F)cc4)C3)n2)c(OC)c1 (stereo not given)
  RP-LC retention time: 850 s

## Cc1ccc(S(=O)(=O)N2CCCC(C(=O)Nc3cc(-c4nc(C)cs4)sc3C)C2)cc1 (stereo not given)
  RP-LC retention time: 1060 s

## Cc1ccc(CNC(=O)c2ccc(Cn3c(C(F)(F)F)nc4cccnc43)cc2)cc1
  RP-LC retention time: 943 s

## O=C(Nc1cnc(N2CCCC2)nc1)c1ccc(Br)o1
  RP-LC retention time: 732 s

## Cc1ccc(NC(=O)Nc2cccc(-c3ccc(N4CCOCC4)nn3)c2)cc1
  RP-LC retention time: 704 s

## CCC(C)NC(=O)N1C[C@@H]2CN(S(=O)(=O)c3ccc(F)cc3)C[C@H](C1)O2 (stereo not given in full)
  RP-LC retention time: 731 s

## CCC(=O)N1CCc2sc(S(=O)(=O)N3CCN(c4cccc(C)c4)CC3)cc2C1
  RP-LC retention time: 1010 s

## COc1ccc(C)cc1NC(=O)C1CCN(S(C)(=O)=O)c2ccccc2O1 (stereo not given)
  RP-LC retention time: 994 s

## O=C(Cn1cnc2c(sc3nc(-c4ccccc4)ccc32)c1=O)NCc1cccs1
  RP-LC retention time: 919 s

## CC(=O)c1cccc(NC(=O)CN2C(=O)NC3(CCC(C)CC3)C2=O)c1 (stereo not given)
  RP-LC retention time: 746 s

## CSc1ccccc1CN1CCC(CNC(=O)c2ccco2)CC1
  RP-LC retention time: 548 s

## Cc1cn(C)nc1C(=O)Nc1nc2ccc(S(C)(=O)=O)cc2s1
  RP-LC retention time: 699 s

## O=C(NCc1ccccc1Cl)c1c(O)c2cccc3c2n(c1=O)CC3
  RP-LC retention time: 1180 s

## Cc1ccc(N2CCC(NC(=O)NC(C)(C)C)C2=O)cc1C (stereo not given)
  RP-LC retention time: 803 s

## O=C(NCCc1c[nH]c2ccccc12)c1ccc(N2C(=O)CCS2(=O)=O)cc1
  RP-LC retention time: 728 s

## CC(C)c1cccc(NC(=O)C2CC(=O)N(c3cccc(NC(=O)C4CCC4)c3)C2)c1 (stereo not given)
  RP-LC retention time: 957 s
